# What was measured:
# Assay in all cases: Radioligand Binding Assay
# Adenosine receptor A2a = Adenosine receptor A2a (Homo sapiens, UniProt P29274)
# Protocol: (§1) For all four adenosine receptors (A1, A2A, A2B and A3) filtration binding assay was performed. Radioligand binding competition assay was done in duplicates in the wells of a 96-well plate (Master Block, Greiner, 786201) containing binding buffer, receptor membrane extracts, a fixed concentration of tracer and test compound at increasing concentrations. In order to eliminate effect of buffer components, binding buffer was the same for all four receptors and contained: 50 mM Tris-HCl pH 7.4, 5 mM MgCl2, 1 mM EDTA, 150 mM NaCl, 0.1% Na-azide, and 5 U/ml adenosine-deaminase. Nonspecific binding was determined by co-incubation with 200-fold excess of cold competitor. In all radioligand binding experiments, the samples were incubated in a final volume of 0.1 ml for 60 minutes at 25° C. and then filtered over Unifilter plates (Perkin Elmer) pre-treated for 2 hours to limit tracer non-specific binding. Filters were washed five times with 0.5 ml of ice-cold washing buffer (50 mM Tris-HCl pH 7.4, 5 mM MgCl2, 1 mM EDTA) and 50 μl of Microscint 20 (Perkin Elmer) were added to each filter. The plates are incubated 15 min at room temperature on an orbital shaker and then counted with a TopCount™ for 1 min/well.
# Adenosine receptor A2b = target: T1, Adenosine receptor A2b (Homo sapiens, UniProt P29275)
# T1 sequence (P29275 whole entry): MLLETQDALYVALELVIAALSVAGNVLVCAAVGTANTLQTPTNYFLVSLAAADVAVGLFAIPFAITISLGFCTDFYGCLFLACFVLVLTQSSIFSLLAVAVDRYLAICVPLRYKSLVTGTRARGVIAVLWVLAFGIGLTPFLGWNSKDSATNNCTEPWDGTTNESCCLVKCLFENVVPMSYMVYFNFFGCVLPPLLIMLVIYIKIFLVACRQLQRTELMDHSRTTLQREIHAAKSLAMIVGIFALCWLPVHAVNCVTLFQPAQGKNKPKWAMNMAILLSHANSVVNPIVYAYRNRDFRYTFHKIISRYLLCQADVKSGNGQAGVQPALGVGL
# Protocol: as §1
# Adenosine receptor A3 = target: T2, Adenosine receptor A3 (Homo sapiens, UniProt P0DMS8)
# T2 sequence (P0DMS8 whole entry): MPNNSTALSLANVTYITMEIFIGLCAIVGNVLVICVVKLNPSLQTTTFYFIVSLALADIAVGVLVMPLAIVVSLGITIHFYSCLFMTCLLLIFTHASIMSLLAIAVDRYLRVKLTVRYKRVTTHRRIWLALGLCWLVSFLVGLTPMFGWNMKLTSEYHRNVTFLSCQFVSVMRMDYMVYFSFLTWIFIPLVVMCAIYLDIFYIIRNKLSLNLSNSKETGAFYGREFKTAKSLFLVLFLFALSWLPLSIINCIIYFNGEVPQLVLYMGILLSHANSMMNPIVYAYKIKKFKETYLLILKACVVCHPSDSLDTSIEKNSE
# Protocol: as §1
# Chain of Adenosine receptor A2a (P29274 whole entry): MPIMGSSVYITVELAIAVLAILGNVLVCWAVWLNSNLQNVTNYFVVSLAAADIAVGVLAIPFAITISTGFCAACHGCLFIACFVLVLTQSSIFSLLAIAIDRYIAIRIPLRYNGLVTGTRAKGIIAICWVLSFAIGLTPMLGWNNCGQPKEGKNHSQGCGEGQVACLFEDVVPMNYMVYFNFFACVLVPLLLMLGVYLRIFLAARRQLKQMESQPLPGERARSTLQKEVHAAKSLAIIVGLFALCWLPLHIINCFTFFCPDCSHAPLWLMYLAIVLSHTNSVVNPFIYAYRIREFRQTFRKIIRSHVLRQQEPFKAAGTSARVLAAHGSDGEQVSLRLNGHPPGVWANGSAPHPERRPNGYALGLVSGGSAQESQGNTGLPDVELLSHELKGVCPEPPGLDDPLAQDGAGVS
Ki (Adenosine receptor A2a) [µM],IC50 (Adenosine receptor A2b) [µM],Ki (Adenosine receptor A2b) [µM],IC50 (Adenosine receptor A2a) [µM],IC50 (Adenosine receptor A3) [µM],Ki (Adenosine receptor A3) [µM],Compound
> 20,1.01,0.891,–,–,–,"Cc1nsc(Nc2nnc(-c3ccnc(C(F)(F)F)c3)c(-c3ccccc3F)n2)n1 [US12391670, Example 11]"
24,0.25,0.224,24.1,1.35,1.02,"Fc1ccccc1-c1nc(Nc2cccnc2)nnc1-c1ccnc(C(F)(F)F)c1 [US12391670, Example 8]"

# Reference: BindingDB's records for patent US12391670 (Leadxpro, 2025)
